# Assay results: PMC7486443, “Generation of Phenothiazine with Potent Anti-TLK1 Activity for Prostate Cancer Therapy” (iScience, 2020)
# Columns and labels:
# TTK = TTK (Homo sapiens, UniProt P33981); test: Kinomescan SCANMAX panel at […]; assay type: binding
# [1] = biological target: T1, ABL1(E255K)-phosphorylated (Homo sapiens, UniProt P00519, E255K); test: biochemical; design: DiscoverX KINOMEscan scanMAX competition binding panel, single concentration, percent of control; remaining binding: dose or concentration left out as unconfirmed; settings: KINOMEscan binding, percent of control; read-out: Table S4_SCANMAX REPORT - related to Fig. 1 / Percent Control
# T1 construct: phosphorylated
# From the text: (§1) Certain PTH are potent inhibitors of TLK1 ([Ronald et al., 2013]), and by inference TLK2, as these proteins must homo- and hetero-dimerize for full activation ([Mortuza et al., 2018]), in addition to being highly similar in sequence and structure, and thus similarly targetable. […] Two noteworthy observations are that PTHs are structurally different from many known ATP competitive inhibitors, and that J54 was carefully designed based on considerations reported previously for the THD—the Kinomescan has confirmed that J54 is specific to TLKs. We should point out that although PTH were the first reported inhibitors of TLKs ([Ronald et al., 2013]), other inhibitors particularly of TLK2 have since been reported ([Kim et al., 2016]), some based on structure docking ([Mortuza et al., 2018]), although neither their potency and effects in vivo nor their potential off-target effects have not been reported as they were selected from libraries of kinase inhibitors. Supplementary file mmc2.xlsx: Table S4. SCANMAX Table, Related to Figure 1 Kinomescan of J54 inhibitory activity on human kinases.
# CDK4-cyclinD3 = biological target: T2, CDK4-cyclinD3 (Homo sapiens, UniProt P11802); test: biochemical; design: DiscoverX KINOMEscan scanMAX competition binding panel, single concentration, percent of control; remaining binding: dose or concentration left out as unconfirmed; settings: KINOMEscan binding, percent of control; read-out: Table S4_SCANMAX REPORT - related to Fig. 1 / Percent Control
# T2 construct: cyclinD3
# From the text: as §1
# CSF1R-autoinhibited = CSF1R-autoinhibited (Homo sapiens, UniProt P07333); test: biochemical; design: DiscoverX KINOMEscan scanMAX competition binding panel, single concentration, percent of control; remaining binding: dose or concentration left out as unconfirmed; settings: KINOMEscan binding, percent of control; read-out: Table S4_SCANMAX REPORT - related to Fig. 1 / Percent Control
# From the text: as §1
# EPHA1 = EPHA1 (Homo sapiens, UniProt P21709); test: biochemical; design: DiscoverX KINOMEscan scanMAX competition binding panel, single concentration, percent of control; remaining binding: dose or concentration left out as unconfirmed; settings: KINOMEscan binding, percent of control; read-out: Table S4_SCANMAX REPORT - related to Fig. 1 / Percent Control
# From the text: as §1
# ERK1 = biological target: T3, ERK1 (Homo sapiens, UniProt P27361); test: biochemical; design: DiscoverX KINOMEscan scanMAX competition binding panel, single concentration, percent of control; remaining binding: dose or concentration left out as unconfirmed; settings: KINOMEscan binding, percent of control; read-out: Table S4_SCANMAX REPORT - related to Fig. 1 / Percent Control
# T3 construct: gene MAPK3
# From the text: as §1
# GSK3A = GSK3A (Homo sapiens, UniProt P49840); test: biochemical; design: DiscoverX KINOMEscan scanMAX competition binding panel, single concentration, percent of control; remaining binding: dose or concentration left out as unconfirmed; settings: KINOMEscan binding, percent of control; read-out: Table S4_SCANMAX REPORT - related to Fig. 1 / Percent Control
# From the text: as §1
# HIPK2 = HIPK2 (Homo sapiens, UniProt Q9H2X6); test: biochemical; design: DiscoverX KINOMEscan scanMAX competition binding panel, single concentration, percent of control; remaining binding: dose or concentration left out as unconfirmed; settings: KINOMEscan binding, percent of control; read-out: Table S4_SCANMAX REPORT - related to Fig. 1 / Percent Control
# From the text: as §1
# JNK3 = biological target: T4, JNK3 (Homo sapiens, UniProt P53779); test: biochemical; design: DiscoverX KINOMEscan scanMAX competition binding panel, single concentration, percent of control; remaining binding: dose or concentration left out as unconfirmed; settings: KINOMEscan binding, percent of control; read-out: Table S4_SCANMAX REPORT - related to Fig. 1 / Percent Control
# T4 construct: gene MAPK10
# From the text: as §1
# MAP4K5 = MAP4K5 (Homo sapiens, UniProt Q9Y4K4); test: biochemical; design: DiscoverX KINOMEscan scanMAX competition binding panel, single concentration, percent of control; remaining binding: dose or concentration left out as unconfirmed; settings: KINOMEscan binding, percent of control; read-out: Table S4_SCANMAX REPORT - related to Fig. 1 / Percent Control
# From the text: as §1
# PLK3 = PLK3 (Homo sapiens, UniProt Q9H4B4); test: biochemical; design: DiscoverX KINOMEscan scanMAX competition binding panel, single concentration, percent of control; remaining binding: dose or concentration left out as unconfirmed; settings: KINOMEscan binding, percent of control; read-out: Table S4_SCANMAX REPORT - related to Fig. 1 / Percent Control
# From the text: as §1
# SRMS = SRMS (Homo sapiens, UniProt Q9H3Y6); test: biochemical; design: DiscoverX KINOMEscan scanMAX competition binding panel, single concentration, percent of control; remaining binding: dose or concentration left out as unconfirmed; settings: KINOMEscan binding, percent of control; read-out: Table S4_SCANMAX REPORT - related to Fig. 1 / Percent Control
# From the text: as §1
# STK36 = STK36 (Homo sapiens, UniProt Q9NRP7); test: biochemical; design: DiscoverX KINOMEscan scanMAX competition binding panel, single concentration, percent of control; remaining binding: dose or concentration left out as unconfirmed; settings: KINOMEscan binding, percent of control; read-out: Table S4_SCANMAX REPORT - related to Fig. 1 / Percent Control
# From the text: as §1
# WNK3 = WNK3 (Homo sapiens, UniProt Q9BYP7); test: biochemical; design: DiscoverX KINOMEscan scanMAX competition binding panel, single concentration, percent of control; remaining binding: dose or concentration left out as unconfirmed; settings: KINOMEscan binding, percent of control; read-out: Table S4_SCANMAX REPORT - related to Fig. 1 / Percent Control
# From the text: as §1
# YSK1 = biological target: T5, YSK1 (Homo sapiens, UniProt O00506); test: biochemical; design: DiscoverX KINOMEscan scanMAX competition binding panel, single concentration, percent of control; remaining binding: dose or concentration left out as unconfirmed; settings: KINOMEscan binding, percent of control; read-out: Table S4_SCANMAX REPORT - related to Fig. 1 / Percent Control
# T5 construct: gene STK25
# From the text: as §1
# p38-alpha = biological target: T6, p38-alpha (Homo sapiens, UniProt Q16539); test: biochemical; design: DiscoverX KINOMEscan scanMAX competition binding panel, single concentration, percent of control; remaining binding: dose or concentration left out as unconfirmed; settings: KINOMEscan binding, percent of control; read-out: Table S4_SCANMAX REPORT - related to Fig. 1 / Percent Control
# T6 construct: gene MAPK14
# From the text: as §1
# DYRK1B = DYRK1B (Homo sapiens, UniProt Q9Y463); test: biochemical; design: DiscoverX KINOMEscan scanMAX competition binding panel, single concentration, percent of control; dose or concentration left out as unconfirmed; settings: KINOMEscan binding, percent of control; read-out: Table S4_SCANMAX REPORT - related to Fig. 1 / Percent Control
# From the text: as §1
# LTK = LTK (Homo sapiens, UniProt P29376); test: biochemical; design: DiscoverX KINOMEscan scanMAX competition binding panel, single concentration, percent of control; dose or concentration left out as unconfirmed; settings: KINOMEscan binding, percent of control; read-out: Table S4_SCANMAX REPORT - related to Fig. 1 / Percent Control
# From the text: as §1
# STK33 = STK33 (Homo sapiens, UniProt Q9BYT3); test: biochemical; design: DiscoverX KINOMEscan scanMAX competition binding panel, single concentration, percent of control; dose or concentration left out as unconfirmed; settings: KINOMEscan binding, percent of control; read-out: Table S4_SCANMAX REPORT - related to Fig. 1 / Percent Control
# From the text: as §1
# MAP4K5, sequence (Q9Y4K4 whole entry): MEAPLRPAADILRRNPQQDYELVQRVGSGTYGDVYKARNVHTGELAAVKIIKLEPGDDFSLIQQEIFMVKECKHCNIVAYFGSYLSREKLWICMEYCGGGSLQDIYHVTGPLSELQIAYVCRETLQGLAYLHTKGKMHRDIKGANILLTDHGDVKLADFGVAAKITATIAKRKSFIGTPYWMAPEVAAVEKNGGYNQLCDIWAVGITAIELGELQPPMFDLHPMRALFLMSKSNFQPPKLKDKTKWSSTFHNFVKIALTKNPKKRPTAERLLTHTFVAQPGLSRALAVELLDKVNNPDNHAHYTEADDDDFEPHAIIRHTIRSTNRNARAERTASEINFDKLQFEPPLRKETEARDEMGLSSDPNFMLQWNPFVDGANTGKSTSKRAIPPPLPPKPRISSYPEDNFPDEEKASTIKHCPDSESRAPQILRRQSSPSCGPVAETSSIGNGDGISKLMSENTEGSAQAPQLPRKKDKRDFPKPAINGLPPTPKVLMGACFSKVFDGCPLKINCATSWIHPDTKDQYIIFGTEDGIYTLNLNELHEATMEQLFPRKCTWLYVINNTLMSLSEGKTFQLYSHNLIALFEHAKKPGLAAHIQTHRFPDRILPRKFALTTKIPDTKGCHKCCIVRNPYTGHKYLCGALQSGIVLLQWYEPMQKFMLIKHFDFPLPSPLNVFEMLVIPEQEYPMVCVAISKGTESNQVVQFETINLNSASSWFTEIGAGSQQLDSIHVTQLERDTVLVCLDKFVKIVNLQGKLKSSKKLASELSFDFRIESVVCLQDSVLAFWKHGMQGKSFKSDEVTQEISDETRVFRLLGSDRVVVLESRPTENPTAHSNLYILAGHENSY
# CSF1R-autoinhibited, sequence (P07333 whole entry): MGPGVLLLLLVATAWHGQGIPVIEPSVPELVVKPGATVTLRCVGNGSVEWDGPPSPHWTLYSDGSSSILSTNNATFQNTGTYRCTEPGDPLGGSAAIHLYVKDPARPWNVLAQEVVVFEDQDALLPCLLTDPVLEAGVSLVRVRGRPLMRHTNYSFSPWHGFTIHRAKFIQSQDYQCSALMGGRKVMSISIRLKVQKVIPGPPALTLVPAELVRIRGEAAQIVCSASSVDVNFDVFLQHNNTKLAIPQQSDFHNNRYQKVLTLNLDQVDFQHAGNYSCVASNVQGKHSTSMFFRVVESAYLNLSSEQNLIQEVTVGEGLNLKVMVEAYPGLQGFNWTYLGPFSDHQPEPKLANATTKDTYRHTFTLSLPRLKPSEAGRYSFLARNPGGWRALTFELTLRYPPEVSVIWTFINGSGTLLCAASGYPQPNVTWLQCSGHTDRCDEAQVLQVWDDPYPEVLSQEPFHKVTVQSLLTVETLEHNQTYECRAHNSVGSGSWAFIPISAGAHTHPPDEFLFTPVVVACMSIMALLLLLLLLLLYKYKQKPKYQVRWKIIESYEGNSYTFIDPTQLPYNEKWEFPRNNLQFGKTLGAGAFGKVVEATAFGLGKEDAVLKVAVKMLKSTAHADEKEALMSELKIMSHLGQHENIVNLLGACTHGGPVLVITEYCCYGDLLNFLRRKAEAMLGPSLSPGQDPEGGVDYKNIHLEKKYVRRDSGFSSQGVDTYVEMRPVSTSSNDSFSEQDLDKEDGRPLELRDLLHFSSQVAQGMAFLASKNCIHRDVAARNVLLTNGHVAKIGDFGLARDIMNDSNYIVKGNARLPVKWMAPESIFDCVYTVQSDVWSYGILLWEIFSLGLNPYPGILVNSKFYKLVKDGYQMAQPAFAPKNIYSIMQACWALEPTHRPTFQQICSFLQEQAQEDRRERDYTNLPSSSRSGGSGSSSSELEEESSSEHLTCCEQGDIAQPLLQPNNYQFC
# STK36, sequence (Q9NRP7 whole entry): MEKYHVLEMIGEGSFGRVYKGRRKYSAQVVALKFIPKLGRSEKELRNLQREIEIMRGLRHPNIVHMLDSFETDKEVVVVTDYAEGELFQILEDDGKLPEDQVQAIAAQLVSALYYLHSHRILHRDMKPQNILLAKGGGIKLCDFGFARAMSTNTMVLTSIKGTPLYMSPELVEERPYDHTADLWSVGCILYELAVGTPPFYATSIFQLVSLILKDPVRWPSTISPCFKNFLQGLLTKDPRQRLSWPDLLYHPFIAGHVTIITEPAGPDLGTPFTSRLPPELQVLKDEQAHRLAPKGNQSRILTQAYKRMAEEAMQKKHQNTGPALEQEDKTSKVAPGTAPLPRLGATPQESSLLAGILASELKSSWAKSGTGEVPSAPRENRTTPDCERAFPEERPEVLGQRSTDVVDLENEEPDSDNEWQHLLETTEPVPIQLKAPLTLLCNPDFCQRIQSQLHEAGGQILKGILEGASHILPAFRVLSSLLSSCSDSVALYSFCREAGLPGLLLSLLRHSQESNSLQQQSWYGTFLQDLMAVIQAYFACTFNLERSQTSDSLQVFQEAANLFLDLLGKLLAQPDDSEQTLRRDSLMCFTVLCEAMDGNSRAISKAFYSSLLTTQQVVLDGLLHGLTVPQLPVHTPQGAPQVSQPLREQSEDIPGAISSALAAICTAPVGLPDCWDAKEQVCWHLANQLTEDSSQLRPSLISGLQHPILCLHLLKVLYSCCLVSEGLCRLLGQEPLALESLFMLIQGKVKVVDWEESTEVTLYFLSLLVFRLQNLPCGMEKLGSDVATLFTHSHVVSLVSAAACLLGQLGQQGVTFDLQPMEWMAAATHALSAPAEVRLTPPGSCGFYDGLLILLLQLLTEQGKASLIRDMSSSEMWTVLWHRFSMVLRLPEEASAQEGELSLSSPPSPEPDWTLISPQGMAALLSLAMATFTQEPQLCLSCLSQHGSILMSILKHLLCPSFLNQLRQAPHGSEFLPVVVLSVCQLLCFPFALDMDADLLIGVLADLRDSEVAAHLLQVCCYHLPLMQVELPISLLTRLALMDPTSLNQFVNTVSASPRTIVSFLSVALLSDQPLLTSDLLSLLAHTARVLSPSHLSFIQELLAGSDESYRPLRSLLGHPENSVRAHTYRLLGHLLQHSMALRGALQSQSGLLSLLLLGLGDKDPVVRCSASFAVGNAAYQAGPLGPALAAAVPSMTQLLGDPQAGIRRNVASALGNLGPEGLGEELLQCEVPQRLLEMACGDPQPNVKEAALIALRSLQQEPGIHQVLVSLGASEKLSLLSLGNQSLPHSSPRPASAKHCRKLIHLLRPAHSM
# STK33, sequence (Q9BYT3 whole entry): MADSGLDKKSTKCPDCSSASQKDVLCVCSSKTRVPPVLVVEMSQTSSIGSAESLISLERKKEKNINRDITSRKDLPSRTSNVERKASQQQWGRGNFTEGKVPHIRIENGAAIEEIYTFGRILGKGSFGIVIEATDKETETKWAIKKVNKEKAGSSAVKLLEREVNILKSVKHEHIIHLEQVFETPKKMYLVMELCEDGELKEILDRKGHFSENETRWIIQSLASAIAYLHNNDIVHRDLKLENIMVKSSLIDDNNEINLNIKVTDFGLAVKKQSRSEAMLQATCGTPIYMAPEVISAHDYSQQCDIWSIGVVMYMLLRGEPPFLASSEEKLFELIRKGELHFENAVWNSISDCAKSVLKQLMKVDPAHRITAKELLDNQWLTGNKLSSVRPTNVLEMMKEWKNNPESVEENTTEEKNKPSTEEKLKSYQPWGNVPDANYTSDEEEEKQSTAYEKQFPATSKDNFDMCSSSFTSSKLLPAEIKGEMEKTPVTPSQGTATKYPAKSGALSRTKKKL
# T5 sequence (O00506 whole entry): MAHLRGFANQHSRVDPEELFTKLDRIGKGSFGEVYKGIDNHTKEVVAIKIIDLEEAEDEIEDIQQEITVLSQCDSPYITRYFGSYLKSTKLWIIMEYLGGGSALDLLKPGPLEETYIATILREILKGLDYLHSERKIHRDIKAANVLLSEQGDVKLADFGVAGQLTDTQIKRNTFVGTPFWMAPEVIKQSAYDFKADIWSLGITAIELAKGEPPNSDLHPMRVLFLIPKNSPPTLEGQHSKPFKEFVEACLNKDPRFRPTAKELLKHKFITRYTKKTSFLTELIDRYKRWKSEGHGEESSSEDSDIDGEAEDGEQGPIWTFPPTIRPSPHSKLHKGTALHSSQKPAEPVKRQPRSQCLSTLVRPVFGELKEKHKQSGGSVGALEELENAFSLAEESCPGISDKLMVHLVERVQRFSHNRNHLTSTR
# TTK, sequence (P33981 whole entry): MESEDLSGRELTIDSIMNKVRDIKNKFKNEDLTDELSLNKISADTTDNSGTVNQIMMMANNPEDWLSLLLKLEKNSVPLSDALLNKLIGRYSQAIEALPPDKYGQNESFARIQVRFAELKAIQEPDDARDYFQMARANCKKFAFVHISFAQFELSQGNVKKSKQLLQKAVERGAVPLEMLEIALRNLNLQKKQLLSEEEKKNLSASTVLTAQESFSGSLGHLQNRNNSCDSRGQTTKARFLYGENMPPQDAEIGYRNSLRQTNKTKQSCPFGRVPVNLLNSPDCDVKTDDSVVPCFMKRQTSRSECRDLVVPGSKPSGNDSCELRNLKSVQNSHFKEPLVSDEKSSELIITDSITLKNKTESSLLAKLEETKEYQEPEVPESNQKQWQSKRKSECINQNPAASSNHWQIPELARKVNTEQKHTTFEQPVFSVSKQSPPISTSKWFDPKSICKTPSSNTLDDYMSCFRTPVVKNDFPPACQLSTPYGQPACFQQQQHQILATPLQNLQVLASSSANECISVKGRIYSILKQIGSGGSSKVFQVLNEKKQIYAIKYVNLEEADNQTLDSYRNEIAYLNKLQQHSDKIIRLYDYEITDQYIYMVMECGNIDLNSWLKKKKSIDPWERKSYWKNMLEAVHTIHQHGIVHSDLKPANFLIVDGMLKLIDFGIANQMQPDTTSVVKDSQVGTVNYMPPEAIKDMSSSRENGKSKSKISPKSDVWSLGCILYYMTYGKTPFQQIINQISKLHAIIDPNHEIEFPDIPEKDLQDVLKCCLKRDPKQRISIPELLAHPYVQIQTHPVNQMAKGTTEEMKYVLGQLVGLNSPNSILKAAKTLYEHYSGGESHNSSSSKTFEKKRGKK
smiles,measurement,setting,value
c1ccc2c(c1)Sc1ccccc1N2CCN1CCOCC1 [J54],Kinomescan SCANMAX panel at 15 μM,TTK,little inhibition of all other kinases with the exception of TTK
same,remaining binding,[1],86%
same,remaining binding,CDK4-cyclinD3,98%
same,remaining binding,CSF1R-autoinhibited,85%
same,remaining binding,EPHA1,100%
same,remaining binding,ERK1,100%
same,remaining binding,GSK3A,80%
same,remaining binding,HIPK2,100%
same,remaining binding,JNK3,93%
same,remaining binding,MAP4K5,68%
same,remaining binding,PLK3,100%
same,remaining binding,SRMS,100%
same,remaining binding,STK36,67%
same,remaining binding,WNK3,98%
same,remaining binding,YSK1,97%
same,remaining binding,p38-alpha,100%
same,remaining binding,DYRK1B,54%
same,remaining binding,LTK,100%
same,remaining binding,STK33,100%
